The target in one assay is T1, FLT3 (Homo sapiens, UniProt P36888).
T1 sequence (P36888 27-993): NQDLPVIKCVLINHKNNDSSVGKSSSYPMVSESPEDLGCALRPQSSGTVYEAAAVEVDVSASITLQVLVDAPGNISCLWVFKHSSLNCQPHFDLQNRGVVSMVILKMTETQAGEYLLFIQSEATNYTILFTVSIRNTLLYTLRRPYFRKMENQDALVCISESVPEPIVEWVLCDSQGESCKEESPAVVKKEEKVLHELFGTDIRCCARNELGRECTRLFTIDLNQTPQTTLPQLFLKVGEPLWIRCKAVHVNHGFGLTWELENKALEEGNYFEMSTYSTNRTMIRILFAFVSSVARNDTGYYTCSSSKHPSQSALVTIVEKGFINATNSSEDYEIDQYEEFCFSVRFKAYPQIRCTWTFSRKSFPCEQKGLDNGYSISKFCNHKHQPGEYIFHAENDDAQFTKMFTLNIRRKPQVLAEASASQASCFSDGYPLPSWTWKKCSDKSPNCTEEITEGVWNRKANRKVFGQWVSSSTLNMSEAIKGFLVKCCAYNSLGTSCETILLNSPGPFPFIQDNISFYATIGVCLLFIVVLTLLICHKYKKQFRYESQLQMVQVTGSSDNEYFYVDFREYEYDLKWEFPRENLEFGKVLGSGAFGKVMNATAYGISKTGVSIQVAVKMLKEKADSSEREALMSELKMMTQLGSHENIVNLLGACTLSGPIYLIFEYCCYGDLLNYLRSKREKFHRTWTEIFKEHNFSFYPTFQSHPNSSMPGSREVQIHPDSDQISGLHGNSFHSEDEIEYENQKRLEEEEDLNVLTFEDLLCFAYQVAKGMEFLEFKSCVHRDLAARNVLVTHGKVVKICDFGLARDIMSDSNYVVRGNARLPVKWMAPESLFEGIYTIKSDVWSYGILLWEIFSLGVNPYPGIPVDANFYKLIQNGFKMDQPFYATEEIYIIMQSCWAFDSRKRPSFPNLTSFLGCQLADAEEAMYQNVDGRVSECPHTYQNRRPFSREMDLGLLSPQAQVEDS
The assay is described as follows: TR-FRET kinase activity assay, FLT3. As to conditions: ATP at Km, 60 minutes. The class given is biochemical. The method, boiled down:
(§1)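 Inhibition is measured as loss of phospho-peptide formation: kinase, fluorescent tyrosine peptide and compound are combined, ATP is added at Km, and the reaction proceeds 60 min at RT in pH 7.5 HEPES buffer. An EDTA stop and Eu-labelled phospho-specific antibody allow TR-FRET detection for IC50 fitting.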

Another assay deals with T2, MERTK (Homo sapiens, UniProt Q12866).
T2 sequence (Q12866 21-999): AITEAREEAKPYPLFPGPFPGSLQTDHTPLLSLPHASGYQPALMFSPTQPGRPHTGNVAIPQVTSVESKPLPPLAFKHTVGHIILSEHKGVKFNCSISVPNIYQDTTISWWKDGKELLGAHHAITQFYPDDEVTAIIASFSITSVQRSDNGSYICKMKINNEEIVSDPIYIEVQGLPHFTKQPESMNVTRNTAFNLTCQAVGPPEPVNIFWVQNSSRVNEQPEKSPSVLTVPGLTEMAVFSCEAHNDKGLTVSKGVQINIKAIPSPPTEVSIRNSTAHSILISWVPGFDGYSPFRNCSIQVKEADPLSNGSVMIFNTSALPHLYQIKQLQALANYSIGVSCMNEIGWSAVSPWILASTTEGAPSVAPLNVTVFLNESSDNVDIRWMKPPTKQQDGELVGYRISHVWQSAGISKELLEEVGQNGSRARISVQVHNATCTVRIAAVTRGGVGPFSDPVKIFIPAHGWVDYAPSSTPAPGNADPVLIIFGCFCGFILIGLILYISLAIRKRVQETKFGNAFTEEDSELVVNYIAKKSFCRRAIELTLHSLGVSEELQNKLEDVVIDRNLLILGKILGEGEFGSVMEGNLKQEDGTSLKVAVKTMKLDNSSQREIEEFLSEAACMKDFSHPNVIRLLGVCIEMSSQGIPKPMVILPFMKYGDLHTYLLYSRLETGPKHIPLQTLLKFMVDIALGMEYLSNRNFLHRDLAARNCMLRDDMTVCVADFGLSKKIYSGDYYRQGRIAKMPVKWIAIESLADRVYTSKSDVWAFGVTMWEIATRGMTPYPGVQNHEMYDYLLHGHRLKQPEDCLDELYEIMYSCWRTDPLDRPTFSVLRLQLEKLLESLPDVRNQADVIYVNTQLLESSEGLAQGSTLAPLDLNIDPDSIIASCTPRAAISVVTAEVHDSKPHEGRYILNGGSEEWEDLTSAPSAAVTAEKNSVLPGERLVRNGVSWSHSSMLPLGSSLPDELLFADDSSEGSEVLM
The assay is described as follows: TR-FRET kinase activity assay, MERTK. It is filed as biochemical. In short, it runs like this: as §1
Background: Time-resolved FRET reads energy transfer from a long-lived donor to a nearby acceptor.

Each structure is given as a SMILES string.

On to `C[C@@H](CC(F)(F)F)Nc1ncc2c(-c3cnn(C(C)(C)C(=O)C4COC4)c3)cc([C@H]3CC[C@](C)(O)CC3)n2n1` [Compound 610], for which the IC50 is no more than 0.1 µM at FLT3 and no more than 0.1 µM on MERTK (TR-FRET activity assay, ATP at Km, 60 minutes, read-out: Mer IC50). The “FLT3/Mer ratio (FLT3 IC50/Mer IC50)” value at MERTK (ratio calculated as FLT3 IC50/Mer IC50) is “++ (“++” represents a ratio of between 10 and 100)”.

A word on the IC50: it is the concentration that inhibits the measured activity by half.
